Laboratory results from patent US8106055B2, “Substituted amide compounds” (Gruenenthal GmbH, priority 2007, dated 2012).

biological target: T1, human μ opiate receptor (Homo sapiens, UniProt P35372); test: Affinity for the human μ opiate receptor ([3H]-naloxone displacement, CHO-K1 receptor membrane preparation, SPA); assay type: binding; details: test concentration of 1 μM; read-out: μ (binding on the μ opioid receptor, % inhibition)
T1 construct: purchased PerkinElmer Life Sciences, Zaventem, Belgium RB-HOM; host or cells: CHO-K1 cells (membrane preparation)
T1 sequence (P35372 whole entry): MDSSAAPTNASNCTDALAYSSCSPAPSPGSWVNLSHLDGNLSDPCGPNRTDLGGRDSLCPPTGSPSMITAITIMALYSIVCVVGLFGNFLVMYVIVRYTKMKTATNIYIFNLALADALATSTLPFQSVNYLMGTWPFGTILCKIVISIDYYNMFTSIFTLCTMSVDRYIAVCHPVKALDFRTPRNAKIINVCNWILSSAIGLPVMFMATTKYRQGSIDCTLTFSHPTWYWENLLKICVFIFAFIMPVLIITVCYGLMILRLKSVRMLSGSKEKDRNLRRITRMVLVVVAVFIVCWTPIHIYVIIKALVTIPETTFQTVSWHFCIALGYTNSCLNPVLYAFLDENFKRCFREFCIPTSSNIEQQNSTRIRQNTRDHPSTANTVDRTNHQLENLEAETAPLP
How it was run: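 Displacement of 1 nmol/l [3H]-naloxone measured by SPA counting after 90 min at room temperature, using human μ receptor CHO-K1 membrane preparation in Tris-HCl buffer with 0.06% BSA. Test substances at 1 μmol/l give % inhibition; dilution series yield IC50, then Ki (Cheng-Prusoff); non-specific binding with 100 μmol/l naloxone.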

Row | SMILES | inhibition at 1 µM [%]
1 | CN(C)C(c1cccs1)C1CCC(NC(=O)COCCN(C)S(=O)(=O)c2cccc(C(F)(F)F)c2)CC1 (centres unmarked) [Example 152, N-(4-((dimethylamino)(thiophen-2-yl)methyl)cyclohexyl)-2-(2-(N-methyl-3-(trifluoromethyl)phenylsulfonamido)ethoxy)acetamide] | 89
2 | COc1ccc(S(=O)(=O)N2CCC(OCC(=O)NC3CCC(C(c4cccs4)N(C)C)CC3)C2)cc1OC (centres unmarked) [Example 155, 2-(1-(3,4-dimethoxyphenylsulfonyl)pyrrolidin-3-yloxy)-N-(4-((dimethylamino)(thiophen-2-yl)methyl)cyclohexyl)acetamide] | 88
3 | Cc1ccc(S(=O)(=O)N2CCC(OCC(=O)NC3CCC(C(c4cccs4)N(C)C)CC3)C2)cc1 (centres unmarked) [Example 156, N-(4-((dimethylamino)(thiophen-2-yl)methyl)cyclohexyl)-2-(1-tosylpyrrolidin-3-yloxy)acetamide] | 80
4 | Cc1ccc(S(=O)(=O)N(C)CCOCC(=O)NCC2CCC(C(c3ccccc3)N(C)C)CC2)cc1 (centres unmarked) [Example 157, N-((4-((dimethylamino) (phenyl)methyl)cyclohexyl)methyl)-2-(2-(N,4-dimethylphenylsulfonamido)ethoxy)acetamide] | 87
5 | CN(C)C(c1cccc(F)c1)C1CCC(CNC(=O)COCCN(C)S(=O)(=O)c2ccc(Cl)cc2)CC1 (centres unmarked) [Example 158, 2-(2-(4-chloro-N-methylphenylsulfonamido)ethoxy)-N-((4-((dimethylamino)(3-fluorophenyl)methyl)cyclohexyl)methyl)acetamide] | 87
6 | CN(C)C(c1cccs1)C1CCC(NC(=O)COCCN(Cc2ccccc2)S(=O)(=O)c2ccccc2)CC1 (centres unmarked) [Example 161, 2-(2-(N-benzylphenylsulfonamido)ethoxy)-N-(4-((dimethylamino)(thiophen-2-yl)methyl)cyclohexyl)acetamide] | 86
7 | COc1ccc(S(=O)(=O)N2CCCC2COCC(=O)NC2CCC(C(c3cccs3)N(C)C)CC2)cc1 (centres unmarked) [Example 162, N-(4-((dimethylamino)(thiophen-2-yl)methyl)cyclohexyl)-2-((1-(4-methoxyphenylsulfonyl)pyrrolidin-2-yl)methoxy)acetamide] | 86
8 | COc1ccc(S(=O)(=O)N2Cc3ccccc3CC2COCC(=O)NCC2CCC(C(c3cccc(F)c3)N(C)C)CC2)cc1 (centres unmarked) [Example 163, N-((4-((dimethylamino)(3-fluorophenyl)methyl)cyclohexyl)methyl)-2-((2-(4-methoxyphenylsulfonyl)-1,2,3,4-tetrahydroisoquinolin-3-yl)methoxy)acetamide] | 87
9 | CN(C)C(c1cccc(F)c1)C1CCC(CNC(=O)COC2CCCCC2N(C)S(=O)(=O)c2ccc(Cl)c(Cl)c2)CC1 (centres unmarked) [Example 164, 2-(2-(3,4-dichloro-N-methylphenylsulfonamido)cyclohexyloxy)-N-((4-((dimethylamino)(3-fluorophenyl)methyl)cyclohexyl)methyl)acetamide] | 86
10 | COc1cc(C)c(S(=O)(=O)N2CCC(OCC(=O)NC3CCC(C(c4ccccc4)N(C)C)CC3)C2)c(C)c1 (centres unmarked) [Example 165, N-(4-((dimethylamino)(phenyl)methyl)cyclohexyl)-2-(1-(4-methoxy-2,6-dimethylphenylsulfonyl)pyrrolidin-3-yloxy)acetamide] | 87
11 | Cc1ccc(S(=O)(=O)N2CCC(OCC(=O)NC3CCC(C(c4cccc(F)c4)N(C)C)CC3)C2)cc1 (centres unmarked) [Example 167, N-(4-((dimethylamino)(3-fluorophenyl)methyl)cyclohexyl)-2-(1-tosylpyrrolidin-3-yloxy)acetamide] | 82
12 | COc1ccc(S(=O)(=O)N(C)CCOCC(=O)NCC2CCC(C(c3ccccc3)N(C)C)CC2)cc1OC (centres unmarked) [Example 169, 2-(2-(3,4-dimethoxy-N-methylphenylsulfonamido)ethoxy)-N-((4-((dimethylamino)(phenyl)methyl)cyclohexyl)methyl)acetamide] | 85
13 | CN(C)C(c1cccc(F)c1)C1CCC(CNC(=O)COC2CCN(S(=O)(=O)c3cccc(C(F)(F)F)c3)C2)CC1 (centres unmarked) [Example 170, N-((4-((dimethylamino)(3-fluorophenyl)methyl)cyclohexyl)methyl)-2-(1-(3-(trifluoromethyl)phenylsulfonyl)pyrrolidin-3-yloxy)acetamide] | 83
14 | CN(C)C(c1cccc(F)c1)C1CCC(NC(=O)COCCN(C)S(=O)(=O)c2c(Cl)cccc2Cl)CC1 (centres unmarked) [Example 171, 2-(2-(2,6-dichloro-N-methylphenylsulfonamido)ethoxy)-N-(4-((dimethylamino)(3-fluorophenyl)methyl)cyclohexyl)acetamide] | 84
15 | CN(C)C(c1cccc(F)c1)C1CCC(NC(=O)COC2CCN(S(=O)(=O)c3ccc(F)cc3)C2)CC1 (centres unmarked) [Example 172, N-(4-((dimethylamino)(3-fluorophenyl)methyl)cyclohexyl)-2-(1-(4-fluorophenylsulfonyl)pyrrolidin-3-yloxy)acetamide] | 78
16 | COc1cc(C)c(S(=O)(=O)N2CCC(OCC(=O)NCC3CCC(C(c4ccccc4)N(C)C)CC3)C2)c(C)c1 (centres unmarked) [Example 173, N-((4-((dimethylamino)(phenyl)methyl)cyclohexyl)methyl)-2-(1-(4-methoxy-2,6-dimethylphenylsulfonyl)pyrrolidin-3-yloxy)acetamide] | 87
17 | CN(C)C(c1cccc(F)c1)C1CCC(CCNC(=O)COCCN(C)S(=O)(=O)c2c(Cl)cc(Cl)cc2Cl)CC1 (centres unmarked) [Example 174, N-(2-(4-((dimethylamino)(3-fluorophenyl)methyl)cyclohexyl)ethyl)-2-(2-(2,4,6-trichloro-N-methylphenylsulfonamido)ethoxy)acetamide] | 90
18 | CN(C)C(c1cccc(F)c1)C1CCC(NC(=O)COCCN(Cc2ccccc2)S(=O)(=O)c2ccccc2)CC1 (centres unmarked) [Example 175, 2-(2-(N-benzylphenylsulfonamido)ethoxy)-N-(4-((dimethylamino)(3-fluorophenyl)methyl)cyclohexyl)acetamide] | 85
19 | CCN(CCOCC(=O)NC1CCC(C(c2cccc(F)c2)N(C)C)CC1)S(=O)(=O)c1c(C)cc(OC)c(C)c1C (centres unmarked) [Example 176, N-(4-((dimethylamino)(3-fluorophenyl)methyl)cyclohexyl)-2-(2-(N-ethyl-4-methoxy-2,3,6-trimethylphenylsulfonamido)ethoxy)acetamide] | 87
20 | COc1cc(C)c(S(=O)(=O)N2CCC(OCC(=O)NCCC3CCC(C(c4cccs4)N(C)C)CC3)CC2)c(C)c1C (centres unmarked) [Example 177, N-(2-(4-((dimethylamino)(thiophen-2-yl)methyl)cyclohexyl)ethyl)-2-(1-(4-methoxy-2,3,6-trimethylphenylsulfonyl)piperidin-4-yloxy)acetamide] | 88
21 | COc1cc(C)c(S(=O)(=O)N2CCC(CCOCC(=O)NC3CCC(C(c4ccc(F)cc4)N(C)C)CC3)CC2)c(C)c1C (centres unmarked) [Example 178, N-(4-((dimethylamino)(4-fluorophenyl)methyl)cyclohexyl)-2-(2-(1-(4-methoxy-2,3,6-trimethylphenylsulfonyl)piperidin-4-yl)ethoxy)acetamide] | 81
22 | COc1ccc(S(=O)(=O)N2CCCCC2COCC(=O)NCC2CCC(C(c3cccc(F)c3)N(C)C)CC2)cc1 (centres unmarked) [Example 179, N-((4-((dimethylamino)(3-fluorophenyl)methyl)cyclohexyl)methyl)-2-((1-(4-methoxyphenylsulfonyl)piperidin-2-yl)methoxy)acetamide] | 85
23 | COc1ccc(S(=O)(=O)N2CCCCC2COCC(=O)NCCC2CCC(C(c3cccc(F)c3)N(C)C)CC2)cc1 (centres unmarked) [Example 180, N-(2-(4-((dimethylamino)(3-fluorophenyl)methyl)cyclohexyl)ethyl)-2-((1-(4-methoxyphenylsulfonyl)piperidin-2-yl)methoxy)acetamide] | 90
24 | COc1ccc(S(=O)(=O)N2CCCC2COCC(=O)NC2CCC(C(c3ccccc3)N(C)C)CC2)cc1 (centres unmarked) [Example 182, N-(4-((dimethylamino)(phenyl)methyl)cyclohexyl)-2-((1-(4-methoxyphenylsulfonyl)pyrrolidin-2-yl)methoxy)acetamide] | 82
25 | COc1cc(C)c(S(=O)(=O)N(C)CCOCC(=O)NCCC2CCC(C(c3cccc(F)c3)N(C)C)CC2)c(C)c1C (centres unmarked) [Example 183, N-(2-(4-((dimethylamino)(3-fluorophenyl)methyl)cyclohexyl)ethyl)-2-(2-(4-methoxy-N,2,3,6-tetramethylphenylsulfonamido)ethoxy)acetamide] | 83
26 | COc1ccc(S(=O)(=O)N2CCC(OCC(=O)NCC3CCC(C(c4cccc(F)c4)N(C)C)CC3)C2)cc1OC (centres unmarked) [Example 184, 2-(1-(3,4-dimethoxyphenylsulfonyl)pyrrolidin-3-yloxy)-N-((4-((dimethylamino)(3-fluorophenyl)methyl)cyclohexyl)methyl)acetamide] | 91
27 | Cc1ccc(S(=O)(=O)N2CCC(OCC(=O)NCC3CCC(C(c4cccc(F)c4)N(C)C)CC3)C2)cc1 (centres unmarked) [Example 185, N-((4-((dimethylamino)(3-fluorophenyl)methyl)cyclohexyl)methyl)-2-(1-tosylpyrrolidin-3-yloxy)acetamide] | 78
28 | CN(C)C(c1cccc(F)c1)C1CCC(CCNC(=O)COCCN(C)S(=O)(=O)c2ccc(Cl)cc2)CC1 (centres unmarked) [Example 186, 2-(2-(4-chloro-N-methylphenylsulfonamido)ethoxy)-N-(2-(4-((dimethylamino)(3-fluorophenyl)methyl)cyclohexyl)ethyl)acetamide] | 87
29 | CN(C)C(c1cccc(F)c1)C1CCC(CNC(=O)COCCN(C)S(=O)(=O)c2c(Cl)cc(Cl)cc2Cl)CC1 (centres unmarked) [Example 188, N-((4-((dimethylamino)(3-fluorophenyl)methyl)cyclohexyl)methyl)-2-(2-(2,4,6-trichloro-N-methylphenylsulfonamido)ethoxy)acetamide] | 87
